# Source: patent publication US20240207427A1, “SELECTIVE DRUG RELEASE FROM INTERNALIZED CONJUGATES OF BIOLOGICALLY ACTIVE COMPOUNDS” (priority 2021, published 2024)
# Where two headings read alike, the source gives them in different places.
# Tests used:
# Assay type in all cases: cell-based
# [1] = system: non-small-cell lung cancer cells (Calu1); experiment: In vitro potency (CellTiter-Glo, 96 h), Calu1; settings: Homo sapiens, Calu-1, 96 h
# Experimental: (§1) In vitro potency was assessed on multiple cancer cell lines. All cell lines were authenticated by STR profiling at IDEXX Bioresearch and cultured for no more than 2 months after resuscitation. Cells cultured in log-phase growth were seeded for 24 hours in 96-well plates containing […] RPMI 1640 supplemented with 20% FBS. Serial dilutions of antibody-drug conjugates in cell culture media were prepared at 4× working concentrations, and 50 μL of each dilution was added to the 96-well plates. Following addition of test articles, cells were incubated with test articles for 4 days at 37 0° C. After 96 hours, growth inhibition was assessed by CellTiterGlo® (Promega, Madison, WI) and luminescence was measured on a plate reader.
# In Table 7, IC50 values for ADCs are given in ng/mL. Cell viability was determined by CellTiter-Glo staining after 96 h exposure to ADC. ND=Not Determined. Ag2 is an antibody targeting a ubiquitous and readily internalizable antigen. The cancer cell lines tested are renal carcinoma cells (786-0), melanoma cells (A2058), pancreatic cancer cells (BxPC3), non-small-cell lung cancer cells (Calu1), anaplastic large cell lymphoma cells (DEL, DELBVR, Karpas299), Hodgkin's lymphoma cells (L540cy), (Ls174T), breast cancer cells (MDA-MB-231), acute myeloid leukemia cells (MOLM-13), and B-lymphocyte cancer cells (SU-DHL4).
# as §1, with “FBS.” for “FBS. Serial dilutions of antibody-drug conjugates in cell culture media were prepared at 4× working concentrations, and 50 μL of each dilution was added to the 96-well plates.”
# Cell viability was determined by CellTiter-Glo staining after 96 h exposure to the compound. ND=Not Determined. The cancer cell lines tested are renal carcinoma cells (786-0), melanoma cells (A2058), pancreatic cancer cells (BxPC3), non-small-cell lung cancer cells (Calu1), anaplastic large cell lymphoma cells (DEL, DELBVR, Karpas299), Hodgkin's lymphoma cells (L540cy), (Ls 174T), breast cancer cells (MDA-MB-231), acute myeloid leukemia cells (MOLM-13), B-lymphocyte cancer cells (SU-DHL4), multiple myeloma cells (MM.1R), (U266), and melanoma cells (SK-MEL-5).
# as §1, with “37°” for “37 0°”
# In the following Tables IC50 values for ADCs and CPT free drugs are given in ng/mL and nmol/L concentrations. Cell viability was determined by CellTiter-Glo staining after 96 h exposure to ADC or CPT free drug.
# Cell viability was determined by CellTiter-Glo staining after 96 h exposure to ADC. ND=Not Determined.
# [2] = system: anaplastic large cell lymphoma cells (DEL); experiment: In vitro potency (CellTiter-Glo, 96 h), DEL
# Method in brief: (§2)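 Log-phase cells were seeded for 24 h in RPMI 1640 with 20% FBS, then exposed to serially diluted antibody-drug conjugates or free camptothecin drug for 4 days at 37 °C. Growth inhibition was read by luminescence, and IC50 values were reported in ng/mL and nmol/L.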
# [3] = system: anaplastic large cell lymphoma cells (Karpas299); experiment: In vitro potency (CellTiter-Glo, 96 h), Karpas299; settings: Homo sapiens, KARPAS-299, 96 h
# Method in brief: (§3)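 Cells in log-phase growth seeded 24 h in RPMI 1640 with 20% FBS, then exposed to serially diluted ADC or CPT free drug for 96 h at 37 °C. Growth inhibition read by CellTiter-Glo luminescence; IC50 reported in ng/mL or nmol/L.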
# [4] = system: melanoma cells (A2058); experiment: In vitro potency (CellTiter-Glo, 96 h), A2058; settings: Homo sapiens, A2058, 96 h
# Method in brief: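 IC50 (ng/mL) was derived from growth inhibition of STR-authenticated lines held in culture under 2 months after thawing. Cells were grown in RPMI 1640 plus 20% FBS and treated with ADC dilution series for 96 h at 37 °C.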
# [5] = system: Hodgkin's lymphoma cells (L540cy); experiment: In vitro potency (CellTiter-Glo, 96 h), L540cy
# Method in brief: as §3
# [6] = system: acute myeloid leukemia cells (MOLM-13); experiment: In vitro potency (CellTiter-Glo, 96 h), MOLM-13; settings: Homo sapiens, MOLM-13, 96 h
# Method in brief: (§4)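 Medium: RPMI 1640 + 20% FBS. Pre-seeding: 24 h. Treatment: ADC or CPT free drug serial dilutions, 96 h, 37 °C. Read-out: luminescence; IC50 in ng/mL and nmol/L.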
# [7] = system: anaplastic large cell lymphoma cells (DELBVR); experiment: In vitro potency (CellTiter-Glo, 96 h), DELBVR
# Method in brief: as §3
# [8] = system: Ls174T cells; experiment: In vitro potency (CellTiter-Glo, 96 h), Ls174T; settings: Homo sapiens, LS174T; CPT free drugs, Table 24; CellTiter-Glo after 96 h exposure; read-out: IC50 (nmol/L) Ls174T
# Method in brief: as §2
# [9] = system: renal carcinoma cells (786-O); experiment: In vitro potency (CellTiter-Glo, 96 h), 786-O; settings: Homo sapiens, 786-0, 96 h
# Method in brief: as §3
# [10] = system: pancreatic cancer cells (BxPC3); experiment: In vitro potency (CellTiter-Glo, 96 h), BxPC3; settings: Homo sapiens, BXPC-3, 96 h
# Method in brief: as §4
# [11] = system: breast cancer cells (MDA-MB-231); experiment: In vitro potency (CellTiter-Glo, 96 h), MDA-MB-231; settings: Homo sapiens, MDA-MB-231, 96 h
# Method in brief: as §3
# [12] = system: B-lymphocyte cancer cells (SU-DHL4); experiment: In vitro potency (CellTiter-Glo, 96 h), SU-DHL-4; settings: Homo sapiens, SU-DHL-4, 96 h
# Method in brief: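 Authenticated lines (STR), used within 2 months of resuscitation, were seeded 24 h before treatment. Exposure to ADC dilutions lasted 96 h at 37 °C in RPMI 1640 with 20% FBS; viability was quantified luminescently.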
# [13] = CPT free drugs, Table 24, CellTiter-Glo after 96 h exposure, read-out: IC50 (nmol/L) Calu1
# [14] = CPT free drugs, Table 24, CellTiter-Glo after 96 h exposure, read-out: IC50 (nmol/L) DEL
# [15] = CPT free drugs, Table 24, CellTiter-Glo after 96 h exposure, read-out: IC50 (nmol/L) Karpas299
# [16] = CPT free drugs, Table 24, CellTiter-Glo after 96 h exposure, read-out: IC50 (nmol/L) A2058
# [17] = CPT free drugs, Table 24, CellTiter-Glo after 96 h exposure, read-out: IC50 (nmol/L) L540cy
# [18] = CPT free drugs, Table 24, CellTiter-Glo after 96 h exposure, read-out: IC50 (nmol/L) MOLM-13
# [19] = CPT free drugs, Table 24, CellTiter-Glo after 96 h exposure, read-out: IC50 (nmol/L) DELBVR
# [20] = CPT free drugs, Table 24, CellTiter-Glo after 96 h exposure, read-out: IC50 (nmol/L) 786-O
# [21] = CPT free drugs, Table 24, CellTiter-Glo after 96 h exposure, read-out: IC50 (nmol/L) BxPC3
# [22] = CPT free drugs, Table 24, CellTiter-Glo after 96 h exposure, read-out: IC50 (nmol/L) MDAMB231
# [23] = CPT free drugs, Table 24, CellTiter-Glo after 96 h exposure, read-out: IC50 (nmol/L) SU-DHL-4
SMILES,"IC50 [1, 13]","IC50 [2, 14]","IC50 [3, 15]","IC50 [4, 16]","IC50 [5, 17]","IC50 [6, 18]","IC50 [7, 19]",IC50 [8],"IC50 [9, 20]","IC50 [10, 21]","IC50 [11, 22]","IC50 [12, 23]",other results
"CC[C@@]1(O)C(=O)OCc2c1cc1n(c2=O)Cc2c-1nc1cc3c(cc1c2CN)OCO3 [AMDCPT, (5S)-14-(aminomethyl)-5-ethyl-5-hydroxy-7,18,20-trioxa-11,24-diazahexacyclo[11.11.0.02,11.04,9.015,23.017,21]tetracosa-1(13),2,4(9),14,16,21,23-heptaene-6,10-dione, reference compound]",14.4 nmol/L,0.4 nmol/L,1.8 nmol/L,0.7 nmol/L,1 nmol/L,4.3 nmol/L,0.8 nmol/L,1 nmol/L,1.9 nmol/L,3.6 nmol/L,1.4 nmol/L,1 nmol/L,"IC50 ([1]; camptothecin free drug, 96 h, read-out: Calu1 IC50): 52 nmol/L; IC50 ([2]; camptothecin free drug, read-out: DEL IC50): 1 nmol/L; IC50 ([3]; camptothecin free drug, 96 h, read-out: Karpas299 IC50): 2 nmol/L; IC50 ([4]; camptothecin free drug, 96 h, read-out: A2058 IC50): 3 nmol/L; IC50 ([5]; camptothecin free drug, read-out: L540cy IC50): 1 nmol/L; IC50 ([6]; camptothecin free drug, 96 h, read-out: MOLM-13 IC50): 20 nmol/L; IC50 ([7]; camptothecin free drug, read-out: DELBVR IC50): 1 nmol/L; IC50 ([9]; camptothecin free drug, 96 h, read-out: 786-O IC50): 3 nmol/L; IC50 ([10]; camptothecin free drug, 96 h, read-out: BxPC3 IC50): 3 nmol/L; IC50 ([11]; camptothecin free drug, 96 h, read-out: MDAMB231 IC50): 21 nmol/L; IC50 ([12]; camptothecin free drug, 96 h, read-out: SU-DHL-4 IC50): 2 nmol/L"
CC[C@@]1(O)C(=O)OCc2c1cc1n(c2=O)Cc2c-1nc1ccc(C)cc1c2CN [Compound 2a],42 nmol/L,1 nmol/L,9 nmol/L,3 nmol/L,4 nmol/L,29 nmol/L,3 nmol/L,3.9 nmol/L,7 nmol/L,20 nmol/L,5 nmol/L,4 nmol/L,
CC[C@@]1(O)C(=O)OCc2c1cc1n(c2=O)Cc2c-1nc1cc(C)c(F)cc1c2CN [Compound 2aa],> 1000 nmol/L,82 nmol/L,380 nmol/L,130 nmol/L,> 1000 nmol/L,> 1000 nmol/L,87 nmol/L,240 nmol/L,265 nmol/L,> 1000 nmol/L,> 1000 nmol/L,227 nmol/L,
CC[C@@]1(O)C(=O)OCc2c1cc1n(c2=O)Cc2c-1nc1cc(Cl)c(C)c(F)c1c2CN [Compound 2ab],22 nmol/L,2 nmol/L,7 nmol/L,3 nmol/L,4 nmol/L,53 nmol/L,3 nmol/L,6 nmol/L,6 nmol/L,12 nmol/L,30 nmol/L,4 nmol/L,
CC[C@@]1(O)C(=O)OCc2c1cc1n(c2=O)Cc2c-1nc1cc(F)cc(F)c1c2CN [Compound 2ac],68 nmol/L,2 nmol/L,8 nmol/L,3 nmol/L,4 nmol/L,17 nmol/L,3 nmol/L,7 nmol/L,9 nmol/L,16 nmol/L,51 nmol/L,4 nmol/L,
"CC[C@@]1(O)C(=O)OCc2c1cc1n(c2=O)Cc2c-1nc1cc(OC)c(OC)cc1c2CN [Compound 2ao, (19S)-10-(aminomethyl)-19-ethyl-19-hydroxy-6,7-dimethoxy-17-oxa-3,13-diazapentacyclo[11.8.0.02,11.04,9.015,20]henicosa-1(21),2,4(9),5,7,10,15 (20)-heptaene-14,18-dione]",> 1000 nmol/L,937 nmol/L,> 1000 nmol/L,> 1000 nmol/L,> 1000 nmol/L,> 1000 nmol/L,> 1000 nmol/L,> 1000 nmol/L,> 1000 nmol/L,> 1000 nmol/L,> 1000 nmol/L,> 1000 nmol/L,
CC[C@@]1(O)C(=O)OCc2c1cc1n(c2=O)Cc2c-1nc1ccc(F)cc1c2CN [Compound 2b],76 nmol/L,4 nmol/L,18 nmol/L,8 nmol/L,6 nmol/L,19 nmol/L,5.7 nmol/L,14 nmol/L,27 nmol/L,58 nmol/L,17 nmol/L,13 nmol/L,
CC[C@@]1(O)C(=O)OCc2c1cc1n(c2=O)Cc2c-1nc1ccc(Cl)cc1c2CN [Compound 2c],45 nmol/L,1.7 nmol/L,8 nmol/L,3 nmol/L,5 nmol/L,21 nmol/L,3.3 nmol/L,3.9 nmol/L,6 nmol/L,19 nmol/L,6 nmol/L,3 nmol/L,
CC[C@@]1(O)C(=O)OCc2c1cc1n(c2=O)Cc2c-1nc1ccc(OC)cc1c2CN [Compound 2d],43 nmol/L,1 nmol/L,7 nmol/L,2 nmol/L,2 nmol/L,25 nmol/L,1 nmol/L,3.7 nmol/L,5 nmol/L,12 nmol/L,4 nmol/L,4 nmol/L,
CC[C@@]1(O)C(=O)OCc2c1cc1n(c2=O)Cc2c-1nc1ccc(Br)cc1c2CN [Compound 2e],55 nmol/L,1 nmol/L,10.7 nmol/L,5 nmol/L,4.3 nmol/L,56 nmol/L,4 nmol/L,4.5 nmol/L,4.2 nmol/L,30.7 nmol/L,7.1 nmol/L,5.7 nmol/L,
